In brackets after ≈: the same amount, converted by molar mass.
What was measured:
Format in all cases: cell-based, Staphylococcus aureus
[1] = tested on: Staph aureus 1146; experiment: MIC in Mueller-Hinton Broth with 50% pooled inactivated human serum, Assay 1, Table 12; settings: for MIC: Staphylococcus aureus, 1146, Staph aureus 1146, Assay 1, 50% human serum, read-out: MIC, column C; for MIC, column C: Staph aureus 1146, Assay 1, 50% human serum
Method in brief: (§1)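 MIC values in μg/ml, taken as lowest drug concentration without macroscopically visible growth, geometric mean where run repeatedly. For serum-shifted testing, strains grew in Mueller-Hinton Broth plus 50% pooled inactivated human serum; otherwise CLSI M7-A7 microtiter dilution, M100-S16 interpretation.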

[2] = tested on: Staph aureus 2812; experiment: MIC, microtiter broth dilution (CLSI M7-A7), Assay 1, Table 12 column E, no serum; settings: for MIC: Staphylococcus aureus, 2812, Staph aureus 2812, Assay 1, no serum; for MIC, column E: Staph aureus 2812, Assay 1, no serum
Method in brief: as §1

[3] = tested on: Staph aureus 1146; experiment: MIC, microtiter broth dilution (CLSI M7-A7), Assay 1, Table 12 column B, no serum; settings: for MIC: Staphylococcus aureus, 1146, Staph aureus 1146, Assay 1, no serum; for MIC, column B: Staph aureus 1146, Assay 1, no serum
Method in brief: as §1

[4] = tested on: Staph aureus 2811; experiment: MIC, microtiter broth dilution (CLSI M7-A7), Assay 1, Table 12 column D, no serum; settings: for MIC: Staphylococcus aureus, 2811, Staph aureus 2811, Assay 1, no serum; for MIC, column D: Staph aureus 2811, Assay 1, no serum
Method in brief: as §1

[5] = tested on: Staph aureus 1095 MRSA; experiment: MIC, microtiter broth dilution (CLSI M7-A7), Assay 1, Table 12 column A, no serum; settings: Assay 1, no serum; for MIC: Staphylococcus aureus, MRSA
Method in brief: as §1

SMILES: COc1ccc2nccc(C(O)CC[C@@H]3CCN(C4CC5(CCCCC5)C4)C[C@@H]3C(=O)O)c2c1 (stereo partly drawn) [Example 56, (3R,4R)-4-[3-hydroxy-3-(6-methoxyquinolin-4-yl)propyl]-1-spiro[3.5]non-2-ylpiperidine-3-carboxylic acid]
- MIC [1]: 2 µg/mL (≈ 4.29 µM)
- MIC [2]: 0.5 µg/mL (≈ 1.07 µM)
- MIC [3]: 0.5 µg/mL (≈ 1.07 µM)
- MIC [4]: 0.5 µg/mL (≈ 1.07 µM)
- MIC [5]: 2 µg/mL (≈ 4.29 µM)

SMILES: COc1ccc2nccc([C@@H](O)CC[C@@H]3CCN(C4CC(c5cccc(F)c5C)C4)C[C@@H]3C(=O)O)c2c1 (stereo partly drawn) [Example 57, (3R,4R)-1-[3-(3-fluoro-2-methylphenyl)cyclobutyl]-4-[(3S)-3-hydroxy-3-(6-methoxyquinolin-4-yl)propyl]piperidine-3-carboxylic acid]
- MIC [1]: 8 µg/mL (≈ 15.8 µM)
- MIC [2]: 0.25 µg/mL (≈ 0.493 µM)
- MIC [3]: 0.25 µg/mL (≈ 0.493 µM)
- MIC [4]: 0.25 µg/mL (≈ 0.493 µM)
- MIC [5]: 0.5 µg/mL (≈ 0.987 µM)

SMILES: COc1ccc2nccc([C@@H](O)CC[C@@H]3CCN(C4CC(c5cc(C)ccc5F)C4)C[C@@H]3C(=O)O)c2c1 (stereo partly drawn) [Example 61, (3R,4R)-1-[3-(2-fluoro-5-methylphenyl)cyclobutyl]-4-[(3S)-3-hydroxy-3-(6-methoxyquinolin-4-yl)propyl]piperidine-3-carboxylic acid]
- MIC [1]: 2 µg/mL (≈ 3.95 µM)
- MIC [2]: ≤ 0.0625 µg/mL
- MIC [3]: ≤ 0.0625 µg/mL
- MIC [4]: ≤ 0.0625 µg/mL
- MIC [5]: 0.125 µg/mL (≈ 0.247 µM)

SMILES: COc1ccc2nccc([C@@H](O)CC[C@@H]3CCN(C4CC(c5cc(C(F)(F)F)ccc5F)C4)C[C@@H]3C(=O)O)c2c1 (stereo partly drawn) [Example 62, (3R,4R)-1-{3-[2-fluoro-5-(trifluoromethyl)phenyl]cyclobutyl}-4-[(3S)-3-hydroxy-3-(6-methoxyquinolin-4-yl)propyl]piperidine-3-carboxylic acid]
- MIC [1]: 64 µg/mL (≈ 114 µM)
- MIC [2]: 2 µg/mL (≈ 3.57 µM)
- MIC [3]: 2 µg/mL (≈ 3.57 µM)
- MIC [4]: 1 µg/mL (≈ 1.78 µM)
- MIC [5]: 4 µg/mL (≈ 7.14 µM)

SMILES: COc1ccc2nccc([C@@H](O)CC[C@@H]3CCN(C4CC(c5c(F)cccc5Cl)C4)C[C@@H]3C(=O)O)c2c1 (stereo partly drawn) [Example 63, (3R,4R)-1-[3-(2-chloro-6-fluorophenyl)cyclobutyl]-4-[(3S)-3-hydroxy-3-(6-methoxyquinolin-4-yl)propyl]piperidine-3-carboxylic acid]
- MIC [1]: 2 µg/mL (≈ 3.79 µM)
- MIC [2]: ≤ 0.0625 µg/mL
- MIC [3]: ≤ 0.0625 µg/mL
- MIC [4]: ≤ 0.0625 µg/mL
- MIC [5]: 0.125 µg/mL (≈ 0.237 µM)

SMILES: COc1ccc2nccc([C@@H](O)CC[C@@H]3CCN(C4CC(c5cccc(Cl)c5F)C4)C[C@@H]3C(=O)O)c2c1 (stereo partly drawn) [Example 64, (3R,4R)-1-[3-(3-chloro-2-fluorophenyl)cyclobutyl]-4-[(3S)-3-hydroxy-3-(6-methoxyquinolin-4-yl)propyl]piperidine-3-carboxylic acid]
- MIC [1]: 8 µg/mL (≈ 15.2 µM)
- MIC [2]: ≤ 0.0625 µg/mL
- MIC [3]: ≤ 0.0625 µg/mL
- MIC [4]: ≤ 0.0625 µg/mL
- MIC [5]: ≤ 0.0625 µg/mL

SMILES: COc1ccc2nccc([C@@H](O)CC[C@@H]3CCN(C4CC(c5ccc(Cl)cc5F)C4)C[C@@H]3C(=O)O)c2c1 (stereo partly drawn) [Example 65, (3R,4R)-1-[3-(4-chloro-2-fluorophenyl)cyclobutyl]-4-[(3S)-3-hydroxy-3-(6-methoxyquinolin-4-yl)propyl]piperidine-3-carboxylic acid]
- MIC [1]: 16 µg/mL (≈ 30.4 µM)
- MIC [2]: 1 µg/mL (≈ 1.9 µM)
- MIC [3]: 0.25 µg/mL (≈ 0.474 µM)
- MIC [4]: 0.25 µg/mL (≈ 0.474 µM)
- MIC [5]: 1 µg/mL (≈ 1.9 µM)

SMILES: COc1ccc2nccc([C@@H](O)CC[C@@H]3CCN(C4CC(c5c(F)cccc5F)C4C)C[C@@H]3C(=O)O)c2c1 (stereo partly drawn) [Example 66, (3R,4R)-1-[(2,3)-3-(2,6-difluorophenyl)-2-methylcyclobutyl]-4-[(3S)-3-hydroxy-3-(6-methoxyquinolin-4-yl)propyl]piperidine-3-carboxylic acid]
- MIC, column C [1]: 4 µg/mL (≈ 7.62 µM)
- MIC, column E [2]: 0.25 µg/mL (≈ 0.477 µM)
- MIC, column B [3]: 0.125 µg/mL (≈ 0.238 µM)
- MIC, column D [4]: 0.125 µg/mL (≈ 0.238 µM)
- MIC, column A [5]: 1 µg/mL (≈ 1.91 µM)

SMILES: COc1ccc2nccc([C@@H](O)CC[C@@H]3CCN(C4CC(c5c(F)cccc5F)C4C)C[C@@H]3C(=O)O)c2c1 (stereo partly drawn) [Example 67, (3R,4R)-1-[(2,3)-3-(2,6-difluorophenyl)-2-methylcyclobutyl]-4-[(3S)-3-hydroxy-3-(6-methoxyquinolin-4-yl)propyl]piperidine-3-carboxylic acid]
- MIC, column C [1]: 2 µg/mL (≈ 3.81 µM)
- MIC, column E [2]: 0.125 µg/mL (≈ 0.238 µM)
- MIC, column B [3]: <=.0625 μg/ml
- MIC, column D [4]: <=.0625 μg/ml
- MIC, column A [5]: 0.125 µg/mL (≈ 0.238 µM)

SMILES: COc1ccc2nccc([C@@H](O)CC[C@@H]3CCN(C4CC(c5c(F)ccc(Cl)c5F)C4)C[C@@H]3C(=O)O)c2c1 (stereo partly drawn) [Example 68, (3R,4R)-1-[3-(3-chloro-2,6-difluorophenyl)cyclobutyl]-4-[(3S)-3-hydroxy-3-(6-methoxyquinolin-4-yl)propyl]piperidine-3-carboxylic acid]
- MIC [1]: 4 µg/mL (≈ 7.34 µM)
- MIC [2]: ≤ 0.0625 µg/mL
- MIC [3]: ≤ 0.0625 µg/mL
- MIC [4]: ≤ 0.0625 µg/mL
- MIC [5]: 0.25 µg/mL (≈ 0.459 µM)

SMILES: COc1ccc2nccc([C@@H](O)CC[C@@H]3CCN(C4CC(c5c(F)cc(F)cc5F)C4)C[C@@H]3C(=O)O)c2c1 (stereo partly drawn) [Example 69, (3R,4R)-4-[(3S)-3-hydroxy-3-(6-methoxyquinolin-4-yl)propyl]-1-[3-(2,4,6-trifluorophenyl)cyclobutyl]piperidine-3-carboxylic acid]
- MIC [1]: 2 µg/mL (≈ 3.78 µM)
- MIC [2]: 0.25 µg/mL (≈ 0.473 µM)
- MIC [3]: 0.125 µg/mL (≈ 0.236 µM)
- MIC [4]: 0.125 µg/mL (≈ 0.236 µM)
- MIC [5]: 0.5 µg/mL (≈ 0.946 µM)

SMILES: COc1ccc2ncc(Cl)c(CCCC3(C(=O)O)CCN(C4CC(c5ccccc5)C4)C3)c2c1 (stereo not drawn) [Example 86, 3-[3-(3-chloro-6-methoxyquinolin-4-yl)propyl]-1-(3-phenylcyclobutyl)pyrrolidine-3-carboxylic acid]
- MIC [1]: 8 µg/mL (≈ 16.7 µM)
- MIC [2]: ≤ 0.0625 µg/mL
- MIC [3]: ≤ 0.0625 µg/mL
- MIC [4]: ≤ 0.0625 µg/mL
- MIC [5]: ≤ 0.0625 µg/mL

SMILES: COc1ccc2ncc(Cl)c(CCCC3(C(=O)O)CCN(C4CC(c5c(F)cccc5F)C4)C3)c2c1 (stereo not drawn) [Example 87, 3-[3-(3-chloro-6-methoxyquinolin-4-yl)propyl]-1-[3-(2,6-difluorophenyl)cyclobutyl] pyrrolidine-3-carboxylic acid]
- MIC [1]: 8 µg/mL (≈ 15.5 µM)
- MIC [2]: ≤ 0.0625 µg/mL
- MIC [3]: ≤ 0.0625 µg/mL
- MIC [4]: ≤ 0.0625 µg/mL
- MIC [5]: ≤ 0.0625 µg/mL

SMILES: COc1ccc2nccc(C(O)CC[C@@H]3CCN(C4CC(c5ccc(F)cc5)C4)C[C@@H]3C(=O)O)c2c1 (stereo partly drawn) [Example 88, (3R,4R)-1-[3-(4-fluorophenyl)cyclobutyl]-4-[3-hydroxy-3-(6-methoxyquinolin-4-yl)propyl]piperidine-3-carboxylic acid]
- MIC [1]: 4 µg/mL (≈ 8.12 µM)
- MIC [2]: 0.25 µg/mL (≈ 0.508 µM)
- MIC [3]: 0.5 µg/mL (≈ 1.02 µM)
- MIC [4]: 0.25 µg/mL (≈ 0.508 µM)
- MIC [5]: 1 µg/mL (≈ 2.03 µM)

SMILES: COc1ccc2nccc([C@@H](O)CC[C@@H]3CCN(C4CC(c5ccccc5F)C4)C[C@@H]3C(=O)O)c2c1 (stereo partly drawn) [Example 89, (3R,4R)-1-[3-(2-fluorophenyl)cyclobutyl]-4-[(3S)-3-hydroxy-3-(6-methoxyquinolin-4-yl)propyl]piperidine-3-carboxylic acid]
- MIC [1]: 0.5 µg/mL (≈ 1.02 µM)
- MIC [2]: < 0.0625 µg/mL
- MIC [3]: < 0.0625 µg/mL
- MIC [4]: < 0.0625 µg/mL
- MIC [5]: < 0.0625 µg/mL

SMILES: COc1ccc2nccc([C@H](O)CC[C@@H]3CCN(C4CC(c5ccccc5F)C4)C[C@@H]3C(=O)O)c2c1 (stereo partly drawn) [Example 90, (3R,4R)-1-[3-(2-fluorophenyl)cyclobutyl]-4-[(3R)-3-hydroxy-3-(6-methoxyquinolin-4-yl)propyl]piperidine-3-carboxylic acid]
- MIC [1]: 1 µg/mL (≈ 2.03 µM)
- MIC [2]: < 0.0625 µg/mL
- MIC [3]: < 0.0625 µg/mL
- MIC [4]: < 0.0625 µg/mL
- MIC [5]: < 0.0625 µg/mL

SMILES: COc1ccc2nccc([C@H](O)CC[C@@H]3CCN(C4CC(c5cccc(F)c5)C4)C[C@@H]3C(=O)O)c2c1 (stereo partly drawn) [Example 91, (3R,4R)-1-[3-(3-fluorophenyl)cyclobutyl]-4-[(3R)-3-hydroxy-3-(6-methoxyquinolin-4-yl)propyl]piperidine-3-carboxylic acid]
- MIC [1]: 8 µg/mL (≈ 16.2 µM)
- MIC [2]: 0.25 µg/mL (≈ 0.508 µM)
- MIC [3]: 0.25 µg/mL (≈ 0.508 µM)
- MIC [4]: 0.25 µg/mL (≈ 0.508 µM)
- MIC [5]: 0.5 µg/mL (≈ 1.02 µM)

SMILES: COc1ccc2nccc([C@@H](O)CC[C@@H]3CCN(C4CC(c5cccc(F)c5)C4)C[C@@H]3C(=O)O)c2c1 (stereo partly drawn) [Example 92, (3R,4R)-1-[3-(3-fluorophenyl)cyclobutyl]-4-[(3S)-3-hydroxy-3-(6-methoxyquinolin-4-yl)propyl]piperidine-3-carboxylic acid]
- MIC [1]: 0.5 µg/mL (≈ 1.02 µM)
- MIC [2]: ≤ 0.0625 µg/mL
- MIC [3]: ≤ 0.0625 µg/mL
- MIC [4]: ≤ 0.0625 µg/mL
- MIC [5]: 0.125 µg/mL (≈ 0.254 µM)

— patent US20080280879A1, “SUBSTITUTED HETEROCYCLIC DERIVATIVES AND THEIR PHARMACEUTICAL USE AND COMPOSITIONS” (priority 2007, published 2008)
